Measurements taken from patent publication US8470765B2, “Polypeptides and antibacterial or antiseptic use of same” (AnGes MG, Inc., priority 2009, dated 2013).
≈ marks a conversion by molar mass, not a printed value.

Tests used:
[1] = system: Micrococcus luteus NBRC13867; assay: microbe, parasite or virus in culture; details: NBRC13867, read-out: MIC Micrococcus luteus
[2] = system: Salmonella enteritidis IID 604; assay: microbe, parasite or virus in culture; details: Salmonella enterica, read-out: MIC Salmonella Enteritidis
[3] = system: Salmonella typhimurium JCM1652; assay: microbe, parasite or virus in culture; details: Salmonella enterica, read-out: MIC Salmonella Typhimurium
[4] = system: Bacillus subtilis NBRC3134; assay: microbe, parasite or virus in culture; details: NBRC3134, read-out: MIC Bacillus subtilis
[5] = system: Acinetobacter baumanni JCM6841; details: Table 4; two tests, first/second value where not identical
[6] = system: Fusobacterium nucleatum JCM 11025; assay: microbe, parasite or virus in culture; details: JCM11025, read-out: MIC Fusobacterium nucleatum
[7] = system: Bacteroides fragilis JCM 11019; assay: microbe, parasite or virus in culture; details: JCM11019, read-out: MIC Bacteroides fragilis
[8] = system: Actinobacillus actinomycetemcomitans JCM2434; assay: microbe, parasite or virus in culture; details: Aggregatibacter actinomycetemcomitans, JCM2434, read-out: MIC Actinobacillus actinomycetemcomitans
[9] = system: Streptococcus pyogenes JCM5674; assay: microbe, parasite or virus in culture; details: JCM5674, read-out: MIC Streptococcus pyogenes

`O=C(N[C@H](CO)[C@H](O)c1ccc([N+](=O)[O-])cc1)C(Cl)Cl` [chloramphenicol] was tested. Which MIC [1] did it give?
Its MIC is 1 µg/mL (≈ 3.09 µM).

And the MIC [2]?
Its MIC is 4 µg/mL (≈ 12.4 µM).

And the MIC [3]?
Its MIC is 4 µg/mL (≈ 12.4 µM).

And the MIC [4]?
The MIC was 4 µg/mL (≈ 12.4 µM).

What about the “MIC Acinetobacter baumanni” value [5] of the same molecule?
Its value is 16/32.

What about the MIC [6] of the same molecule?
The MIC was 0.25 µg/mL (≈ 0.774 µM).

And the MIC [7]?
The MIC was 1 µg/mL (≈ 3.09 µM).

What about the MIC [8] of the same molecule?
Its MIC is 0.5 µg/mL (≈ 1.55 µM).

What about the MIC [9] of the same molecule?
Its MIC is 2 µg/mL (≈ 6.19 µM).
